Entries after “also recorded” stand apart in the source; their conditions may differ.
Assays:
[1] = system: Human breast cancer cells MDA-MB-231; assay: Viability by trypan blue exclusion test after cell labeling; assay type: cell-based; details: for Viability (%) (±SEM): 83 μM incubation, MDA-MB-231
Method: (§1) Human breast cancer cells MDA-MB-231 were grown at 37° C. with 5% CO2 in 1640-RPMI medium supplemented with 10% fetal bovine serum and 0.5% penicillin streptomycin. Contrast agents were quantified for manganese content by flame AAS prior to cell labeling. MnTCP was dissolved in ultrapure water and MnTriAMP was dissolved in DMSO to give 17 mM stock solutions. The stock solutions were added to the medium with the cells resulting in 83 μM incubation of 2-MnTriAMP or 1-MnTCP for 2 hours. The medium was removed and the cells were washed with fresh medium 5× and then were harvested by washing with PBS followed by addition of 0.05% trypsin EDTA to detach the cells. Viability was assessed directly after labeling with trypan blue exclusion test and observation of cell morphology by phase microscopy.

[2] = system: MDA-MB-231 breast cancer cell pellets; assay: MRI T1 and T2 time measurements of labeled cell pellets; assay type: cell-based, Human; details: MDA-MB-231 cell pellets after 83 μM incubation for 2 hours
Method: as §1
For MRI, cell pellets were formed by centrifugation at 440 g for 10 minutes. Subsequent MR was done with a T1-weighted 2D spin-echo image: TR=100 ms, TE=14.163 ms, 3 mm slice thickness, 0.5×0.5 mm in-plane resolution (FIG. 1).

[3] = system: Human breast cancer cells MDA-MB-231; assay: Intracellular contrast agent concentration by GFAAS of cell digests; assay type: cell-based; details: for Mn / Mn content per cell relative to control: GFAAS of cell digests; for Mn: 83 μM incubation for 2 hours; for Mn content per cell relative to control: control = 1
Method: as §1
The intracellular contrast agent concentration was determined after cell labeling by centrifugation of a known number of cells followed by removal of the supernatant and digestion of the cells by addition of 1 M nitric acid (0.5 ml) and 30 min of heating at 70° C. Then 3 ml of ultrapure water was added to the digested cells, the mixture was filtered and then quantified by graphite furnace atomic absorption spectroscopy (GFAAS) shown in Table 3.

[4] = 0.47 T (20 MHz for 1H Larmor frequency), 37° C.; cited from earlier work

O=C(O)c1c2nc(c(C(=O)O)c3ccc([n-]3)c(C(=O)O)c3nc(c(C(=O)O)c4ccc1[n-]4)C=C3)C=C2.[Cl-].[Mn+3] [1-MnTCP, [5,10,15,20-tetrakis(carboxy)porphyrinato]manganese(III) chloride]
Viability (%) (±SEM) ([1]; 0 hours after 2 h treatment): 98 ± 1%
Viability (%) (±SEM) ([1]; 3 days after 2 h treatment): 80 ± 6%
T1 [2]: 1072.1 ± 28.0 ms
T2 [2]: 108.1 ± 9.3 ms
Mn [3]: 1.90E−13 mM/cell
Mn content per cell relative to control [3]: 33.22

MnTPPS
relaxivity [4]: ~12 mM⁻¹ s⁻¹

[5-carboxy-10,15,20-tris(acetoxymethylcarboxy)porphyrinato]manganese(III) [2-MnTriAMP]
Viability (%) (±SEM) ([1]; 0 hours after 2 h treatment): 97 ± 2%
Viability (%) (±SEM) ([1]; 3 days after 2 h treatment): 87 ± 6%
toxicity / cell viability after labeling (in words) ([1]; MDA-MB-231 after labeling): without affecting the cell viability
T1 [2]: 215.4 ± 12.1 ms
T2 [2]: 66.7 ± 4.4 ms
Mn [3]: 6.05E−13 mM/cell
Mn content per cell relative to control [3]: 105.83
cellular uptake (in words) ([3]; MDA-MB-231, compared to 1-MnTCP, from relaxation times and GFAAS data): significant uptake; also recorded: sufficient cellular uptake and retention

From patent US20160235866A1, “MRI CONTRAST AGENTS FOR CELL LABELING” (THE GOVERNING COUNCIL OF THE UNIVERSITY OF TORONTO, priority 2013, published 2016)
